Assay results reported in patent publication US12679843B2, “Pyrrolopyrimidine amines as complement inhibitors” (BioCryst Pharmaceuticals, Inc., priority 2020, dated 2026).

These molecules were tested against Factor D (Homo sapiens, UniProt P00746) (assay: Factor D esterolytic assay (Z-Lys-SBzl thioester substrate, DTNB, 405 nm)). Conditions: substrate Z-Lys-SBzl 1.29 mM, 100 mM HEPES, 500 mM NaCl, pH 7.5, 10% DMSO, tested a minimum of three times.
Chain of Factor D (P00746 26-253): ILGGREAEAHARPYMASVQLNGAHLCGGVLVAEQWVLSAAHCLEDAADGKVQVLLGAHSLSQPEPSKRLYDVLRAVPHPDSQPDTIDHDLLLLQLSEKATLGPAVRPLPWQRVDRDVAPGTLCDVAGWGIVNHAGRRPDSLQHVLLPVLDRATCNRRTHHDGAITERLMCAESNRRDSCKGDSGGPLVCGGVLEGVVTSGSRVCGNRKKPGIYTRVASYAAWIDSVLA
Format: biochemical
In short: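 Human Factor D hydrolysis of Z-Lys-SBzl (1.29 mM) monitored at 405 nm via DTNB thiol detection for 600 s, 690 nm background subtracted. Buffer 100 mM HEPES, 500 mM NaCl, pH 7.5, 10% DMSO; substrate added immediately or after room-temperature preincubation. IC50 from percent inhibition of rate, at least three tests.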
With COc1cc2c(cc1Br)c1c(N)ncnc1n2CC(=O)N1[C@@H]2C[C@@H]2C[C@H]1C(=O)Nc1cccc(Br)n1 [Compound 374g, (1R,3S,5R)-2-(2-(4-amino-6-bromo-7-methoxy-9H-pyrimido[4,5-b]indol-9-yl)acetyl)-N-(6-bromopyridin-2-yl)-2-azabicyclo[3.1.0]hexane-3-carboxamide] the IC50 was less than 100 nM. Molecule Cc1ccc2c(c1)c1c(N)ncnc1n2CC(=O)N1[C@H](C(=O)Nc2cccc(Br)n2)C[C@@]2(C)C[C@@H]12 [Compound 8b, (1R,3S,5R)-2-(2-(4-amino-6-methyl-9H-pyrimido[4,5-b]indol-9-yl)acetyl)-N-(6-bromopyridin-2-yl)-5-methyl-2-azabicyclo[3.1.0]hexane-3-carboxamide] has an IC50 of less than 100 nM. Molecule Nc1ncnc2c1ncn2CC(=O)N1[C@H](C(=O)NCc2cccc(Cl)c2F)C[C@@H]2C[C@@H]21 [Compound 109e, (1S,3S,5S)-2-(2-(6-amino-9H-purin-9-yl)acetyl)-N-(3-chloro-2-fluorobenzyl)-2-azabicyclo[3.1.0]hexane-3-carboxamide] has an IC50 of 100 to 1000 nM. Work on Cc1ccc(-c2ccc3c(c2)c2c(N)ncnc2n3CC(=O)N2[C@@H]3C[C@@H]3C[C@H]2C(=O)Nc2cccc(Br)n2)cc1 [Compound 205c, (1R,3S,5R)-2-(2-(4-amino-6-(p-tolyl)-9H-pyrimido[4,5-b]indol-9-yl)acetyl)-N-(6-bromopyridin-2-yl)-2-azabicyclo[3.1.0]hexane-3-carboxamide] yielded an IC50 of less than 100 nM. Molecule Nc1cccc2c1ccn2CC(=O)N1[C@@H]2C[C@@H]2C[C@H]1C(=O)Nc1cccc(Br)n1 [Compound 85b, (1R,3S,5R)-2-(2-(4-amino-1H-indol-1-yl)acetyl)-N-(6-bromopyridin-2-yl)-2-azabicyclo[3.1.0]hexane-3-carboxamide] has an IC50 greater than 1000 nM. CCOC(=O)c1cccc2c1c1c(N)ncnc1n2CC(=O)N1[C@@H]2C[C@@H]2C[C@H]1C(=O)Nc1cccc(Br)n1 [Compound 46g, ethyl 4-amino-9-(2-((1R,3S,5R)-3-((6-bromopyridin-2-yl)carbamoyl)-2-azabicyclo[3.1.0]hexan-2-yl)-2-oxoethyl)-9H-pyrimido[4,5-b]indole-5-carboxylate] showed an IC50 of 100 to 1000 nM. Work on Nc1ncnn2c(CC(=O)N3C[C@H](F)C[C@H]3C(=O)NCc3cccc(Cl)c3F)ccc12 [Compound 65a, (2S,4R)-1-(2-(4-aminopyrrolo[2,1-f][1,2,4]triazin-7-yl)acetyl)-N-(3-chloro-2-fluorobenzyl)-4-fluoropyrrolidine-2-carboxamide] yielded an IC50 of less than 100 nM. Molecule C[C@@]12C[C@@H](C(=O)Nc3cccc(Br)n3)N(C(=O)Cn3c4ccc(-c5ccc(F)cc5)cc4c4c(N)ncnc43)[C@@H]1C2 [Compound 337a, (1R,3S,5R)-2-(2-(4-amino-6-(4-fluorophenyl)-9H-pyrimido[4,5-b]indol-9-yl)acetyl)-N-(6-bromopyridin-2-yl)-5-methyl-2-azabicyclo[3.1.0]hexane-3-carboxamide] has an IC50 of less than 100 nM. For Cc1cc(C(F)(F)F)cc2c3c(N)ncnc3n(CC(=O)N3[C@H](C(=O)Nc4cncc(Cl)n4)C[C@@]4(C)C[C@@H]34)c12 [Compound 327c, (1R,3S,5R)-2-(2-(4-amino-8-methyl-6-(trifluoromethyl)-9H-pyrimido[4,5-b]indol-9-yl)acetyl)-N-(6-chloropyrazin-2-yl)-5-methyl-2-azabicyclo[3.1.0]hexane-3-carboxamide], the IC50 was less than 100 nM. With COc1cccc(NC(=O)[C@@H]2C[C@H]3C[C@H]3N2C(=O)Cn2cnc3c(N)ncnc32)c1F [Compound 108b, (1R,3S,5R)-2-(2-(6-amino-9H-purin-9-yl)acetyl)-N-(2-fluoro-3-methoxyphenyl)-2-azabicyclo[3.1.0]hexane-3-carboxamide] the IC50 was greater than 1000 nM. Cc1ccc(-c2cc(C)c3c(c2)c2c(N)ncnc2n3CC(=O)N2[C@@H]3C[C@@H]3C[C@H]2C(=O)Nc2cccc(Br)n2)cc1 [Compound 256a, (1R,3S,5R)-2-(2-(4-amino-8-methyl-6-(p-tolyl)-9H-pyrimido[4,5-b]indol-9-yl)acetyl)-N-(6-bromopyridin-2-yl)-2-azabicyclo[3.1.0]hexane-3-carboxamide] was tested, and the IC50 was less than 100 nM. Cc1cc(C(F)(F)F)cc2c3c(N)ncnc3n(CC(=O)N3C[C@H](F)C[C@H]3C(=O)Nc3cccc(Cl)n3)c12 [Compound 300a, (2S,4R)-1-(2-(4-amino-8-methyl-6-(trifluoromethyl)-9H-pyrimido[4,5-b]indol-9-yl)acetyl)-N-(6-chloropyridin-2-yl)-4-fluoropyrrolidine-2-carboxamide] showed an IC50 of less than 100 nM. Cc1cc(-c2ccco2)cc2c3c(N)ncnc3n(CC(=O)N3[C@@H]4C[C@@H]4C[C@H]3C(=O)Nc3cccc(Br)n3)c12 [Compound 370a, (1R,3S,5R)-2-(2-(4-amino-6-(furan-2-yl)-8-methyl-9H-pyrimido[4,5-b]indol-9-yl)acetyl)-N-(6-bromopyridin-2-yl)-2-azabicyclo[3.1.0]hexane-3-carboxamide] gave an IC50 of less than 100 nM. With COc1cc2c(cc1Br)c1c(N)ncnc1n2CC(=O)N1[C@H](C(=O)Nc2cccc(Br)n2)C[C@@]2(C)C[C@@H]12 [Compound 375a, (1R,3S,5R)-2-(2-(4-amino-6-bromo-7-methoxy-9H-pyrimido[4,5-b]indol-9-yl)acetyl)-N-(6-bromopyridin-2-yl)-5-methyl-2-azabicyclo[3.1.0]hexane-3-carboxamide] the IC50 was less than 100 nM. Work on Cc1cc(C(F)(F)F)cc2c3c(N)ncnc3n(CC(=O)N3[C@@H]4C[C@@H]4C[C@H]3C(=O)Nc3nc(Cl)ccc3F)c12 [Compound 319c, (1R,3S,5R)-2-(2-(4-amino-8-methyl-6-(trifluoromethyl)-9H-pyrimido[4,5-b]indol-9-yl)acetyl)-N-(6-chloro-3-fluoropyridin-2-yl)-2-azabicyclo[3.1.0]hexane-3-carboxamide] yielded an IC50 of less than 100 nM. Molecule Cc1cc(C(F)(F)F)cc2c3c(N)ncnc3n(CC(=O)N3CCS[C@H]3C(=O)Nc3cccc(Br)n3)c12 [Compound 324a, (S)-3-(2-(4-amino-8-methyl-6-(trifluoromethyl)-9H-pyrimido[4,5-b]indol-9-yl)acetyl)-N-(6-bromopyridin-2-yl)thiazolidine-2-carboxamide] has an IC50 of less than 100 nM. With COC(=O)Nc1ccc2c(c1)c1c(N)ncnc1n2CC(=O)N1[C@@H]2C[C@@H]2C[C@H]1C(=O)Nc1cccc(Br)n1 [Compound 225e, methyl (4-amino-9-(2-((1R,3S,5R)-3-((6-bromopyridin-2-yl)carbamoyl)-2-azabicyclo[3.1.0]hexan-2-yl)-2-oxoethyl)-9H-pyrimido[4,5-b]indol-6-yl)carbamate] the IC50 was less than 100 nM. Cc1cc(C(F)(F)F)cc2c3c(N)ncnc3n(CC(=O)N3C[C@H](F)C[C@H]3C(=O)Nc3cncc(Cl)n3)c12 [Compound 325c, (2S,4R)-1-(2-(4-amino-8-methyl-6-(trifluoromethyl)-9H-pyrimido[4,5-b]indol-9-yl)acetyl)-N-(6-chloropyrazin-2-yl)-4-fluoropyrrolidine-2-carboxamide] gave an IC50 of less than 100 nM. For N#Cc1ccc(CNC(=O)[C@@H]2CCCN2C(=O)Cn2c3ccccc3c3c(N)ncnc32)cc1 [Compound 250b, (S)-1-(2-(4-amino-9H-pyrimido[4,5-b]indol-9-yl)acetyl)-N-(4-cyanobenzyl)pyrrolidine-2-carboxamide], the IC50 was greater than 1000 nM.
